Test results from patent US9029078B2, “Perfusion and/or preservation solution for organs” (Philadelphia College of Osteopathic Medicine, priority 2005, dated 2015).
“Also recorded” adds a separate entry of the source. Where no end group is shown, it is not given here.

Key:
[1] = system: PMN adherence to coronary vascular endothelium; test: Histological assessment of intravascular PMNs adhering to the coronary vasculature; design: species or system rat
Method: FIG. 4b. Histological assessment of intravascular PMNs that adhered to the coronary vasculature in isolated perfused rat heart samples taken from 3 rats per group
and 10 areas per heart. […] Hatched boxes represent non-PMN perfused hearts and black boxes represent PMN-perfused hearts. All values are mean numbers of PMNs/mm^2 of heart area± SEM.
PMN adherence to coronary vascular endothelium was also evaluated within the assessment of total intravascular and infiltrated PMNs. […] NO release from rat aortic endothelium was measured to determine if PKC ζ peptide inhibitor provides cardioprotection by a mechanism involving increased endothelial NO release. […] The eNOS inhibitor, L-NAME, was used as another control in order to decrease basal release of NO to zero.

[2] = system: isolated perfused rat hearts (I/R+PMNs); test: Isolated perfused rat heart, 20 min ischemia / 45 min reperfusion with PMNs: cardiac contractile function (LVDP, +dP/dtmax, LVEDP); conditions: for LVDP of initial baseline (initial depression): 15 min into reperfusion; for PMN-induced contractile dysfunction / decrease in +dP/dt max (in words): final +dP/dt max after reperfusion; for PMN-induced contractile dysfunction / decrease in +dP/dt max (in words) / PMN-induced contractile dysfunction / decrease in LVDP (in words): vs I/R+PMNs; for PMN-induced contractile dysfunction / decrease in LVDP (in words): final LVDP, 45 min post reperfusion; for Protective effect on +dP/dt max in the presence of L-NAME (in words) / Protective effect on LVDP in the presence of L-NAME (in words): with L-NAME
Method: (§1) Data were recorded every 5 min for 45 min post-reperfusion. After each experiment, the left ventricle was isolated, fixed in 4% paraformaldehyde and stored at 4° C. for later histological analysis.

[3] = system: PMN infiltration into the myocardium of isolated perfused rat hearts; test: Histological assessment of total intravascular and infiltrated PMNs in post-reperfusion cardiac tissue
Method: FIG. 4a. Histological assessment of total intravascular and infiltrated PMNs in isolated perfused rat heart samples taken from 3 rats per group and 10 areas per heart. […] Hatched boxes represent non-PMN perfused hearts and black boxes represent PMN-perfused hearts. **P<0.01, from I/R+PMNs.
as §1
The cardiac injury associated with I/R in this model was closely correlated with the substantial number of PMNs infiltrating the myocardium within the 45 min reperfusion period. During reperfusion, a significant number of PMNs transmigrated into the myocardium, increasing from less than 25 PMN/mm^2 in Sham I/R hearts to more than 180 PMN/mm^2 in I/R+PMN hearts at the end of the reperfusion period (FIG. 4a).

[4] = system: PMA-stimulated rat PMNs; test: Superoxide release from PMA-stimulated rat PMNs; format: cell-based; conditions: for Superoxide release vs PMA-stimulated rat PMNs (in words): 1 μM; for Superoxide release (absorbance): PMA-stimulated PMNs alone 0.49±0.03; for Superoxide release after PMA (15 nM) stimulation (in words): 360 sec after PMA
Method: (§2) FIG. 6. Superoxide release from rat PMNs. Superoxide release was measured from 5×10^6 PMNs after phorbol-12-myristate-13-acetate (PMA) (15 nM) stimulation. Superoxide dismutase (SOD) (10 μg/ml) was employed as a positive control. The change in absorbance (Δ) was measured 360 sec after PMA addition (peak response). […] All values are means± SEM. Numbers at bottom of bars show the numbers of separate experiments per group.
as §2, with “18.” for “6.”, “PMA” for “phorbol-12-myristate-13-acetate (PMA)”, “SOD” for “Superoxide dismutase (SOD)”
FIG. 22. Superoxide release from rat PMNs. Superoxide release was measured from 5×10^6 PMNs after PMA (15 nM) stimulation. The change in absorbance (Δ) was measured 360 sec after PMA addition (peak response). […] All values are means± SEM. Numbers at bottom of bars show the numbers of separate experiments per group.

[5] = system: rat aortic endothelium; test: Measurement of NO release from rat aortic segments; conditions: for Increase in NO release above basal: basal 1.85±0.18; for Induced production of NO after treating the endothelium with L-NAME: L-NAME 400 μM
Source text: FIG. 5. Measurement of NO release from rat aortic segments. […] All values are expressed as means± SEM. Numbers at bottom of bars are numbers of separate experiments per group. *p<0.05, **p<0.01, from basal values. FIG. 10. Measurement of NO release from rat aortic segments. […] All values are expressed as means± SEM. Numbers at bottom of bars are numbers of separate experiments per group. *p<0.05, **p<0.01, from basal values. FIG. 17. Measurement of NO release from rat aortic segments. […] All values are expressed as means± SEM. Numbers at bottom of bars are numbers of separate experiments per group. **p<0.01, from basal values. PMN adherence to coronary vascular endothelium was also evaluated within the assessment of total intravascular and infiltrated PMNs. […] NO release from rat aortic endothelium was measured to determine if PKC ζ peptide inhibitor provides cardioprotection by a mechanism involving increased endothelial NO release. […] The eNOS inhibitor, L-NAME, was used as another control in order to decrease basal release of NO to zero.

[6] = system: fMLP-stimulated rat PMNs; test: Superoxide release from fMLP-stimulated rat PMNs; format: cell-based; conditions: for Superoxide release (absorbance): fMLP-stimulated PMNs alone 0.13±0.01
Method: as §2, with “11.” for “6.”, “formyl-methionyl-leucyl-phenylalanine (fMLP) (200” for “phorbol-12-myristate-13-acetate (PMA) (15”, “SOD” for “Superoxide dismutase (SOD)”, “90” for “360”, “fMLP” for “PMA”, “are” for “show the”

[7] = I/R+PMN hearts, 1 μM, 45 min post-reperfusion
[8] = I/R+PMN hearts, 5 μM, 45 min post-reperfusion
[9] = I/R+PMN hearts, 10 μM, 45 min post-reperfusion
[10] = I/R+PMN hearts, 2.5 μM, 45 min post-reperfusion
[11] = I/R+PMN hearts, 5 μM + L-NAME 50 μM, 45 min post-reperfusion
[12] = I/R+PMN hearts, 10 μM + L-NAME 50 μM, 45 min post-reperfusion

Compound	LVDP of I/R+PMN group compared to treated I/R+PMN group (time course) ([2]; 10 μM, reperfusion 0 to 45 min)	+dP/dtmax recovered to, of initial baseline [2, 7] [%]	LVDP recovered to, of initial baseline [2, 7] [%]	+dP/dtmax recovered to, of initial baseline [2, 8] [%]	LVDP recovered to, of initial baseline [2, 8] [%]	LVDP of initial baseline (initial depression) ([2]; I/R+PMN hearts, 10 μM) [%]	+dP/dtmax recovered to, of initial baseline [2, 9] [%]	LVDP recovered to, of initial baseline [2, 9] [%]	PMN-induced contractile dysfunction / decrease in +dP/dt max (in words) [2]	PMN-induced contractile dysfunction / decrease in LVDP (in words) [2]	Total intravascular and infiltrated PMNs vs I/R+PMNs (in words) ([3]; I/R+PMN hearts)	Superoxide release vs PMA-stimulated rat PMNs (in words) [4]	Superoxide release after PMA (15 nM) stimulation (in words) [4]	Protective effect on +dP/dt max in the presence of L-NAME (in words) ([2]; I/R+PMN hearts)	Protective effect on LVDP in the presence of L-NAME (in words) ([2]; I/R+PMN hearts)	Endothelial NO release vs basal NO release (in words) [5]	Induced production of NO after treating the endothelium with L-NAME [5]	other results
PKC δ peptide activator: peptide activator of protein kinase C delta; preferred sequence SEQ ID NO: 3, preferably myristoylated (MRAAEDPM; not fully specified; listed as Homo sapiens)	significant and sustained reduction	51±5	60±13	67±7	80±9	58±8	79±5	83±3	attenuated	attenuated	attenuated	no significant inhibition	significantly inhibited					PMNs adhering to the coronary vasculature vs I/R+PMN hearts (in words) [1]: attenuated; LVEDP of I/R+PMN group compared to treated I/R+PMN group (time course) ([2]; 10 μM, reperfusion 0 to 45 min): significant and sustained elevation; Superoxide release (absorbance) ([4]; 5 μM): 0.32±0.03; Superoxide release (absorbance) ([4]; 10 μM): 0.32±0.02
CC(=O)OCC[N+](C)(C)C [Acetylcholine, reference compound]																		Increase in NO release compared to basal NO release ([5]; 200 nM (positive control)): 67±4%; Increase in NO release above basal ([5]; 500 nM (positive control)): 3.75±0.58 pmoles NO/mg tissue
PKC ζ peptide inhibitor: peptide inhibitor of protein kinase C zeta; preferred sequence SEQ ID NO: 2, preferably myristoylated; from Genemed Synthesis (SIYRRGARRWRKL; not fully specified; listed as Homo sapiens)		46±6	57±10	76±5	84±4				attenuated	attenuated	significantly attenuated	no difference	significantly inhibited	blocked	significantly blocked	significantly increased	completely inhibited	Reduction in adherent PMNs to the coronary endothelium (not significant, p<0.06) ([1]; I/R+PMN hearts, 5 μM): 43±10%; LVDP of I/R+PMN group compared to treated I/R+PMN group (time course) ([2]; 5 μM, reperfusion 0 to 45 min): significant and sustained reduction; +dP/dtmax recovered to, of initial baseline [2, 10]: 75±5%; LVDP recovered to, of initial baseline [2, 10]: 83±4%; +dP/dtmax recovered to, of initial baseline [2, 11]: 54±9%; LVDP recovered to, of initial baseline [2, 11]: 58±7%; Lowest effective dose ([2]; I/R+PMN hearts, LVDP and +dP/dtmax): 2.5 µM; Infiltrated PMNs compared to 1 μM treated hearts ([3]; 2.5 and 5 μM treated hearts): significantly fewer infiltrated PMNs; Reduction in PMN infiltration into post-reperfused cardiac tissue ([3]; I/R+PMN hearts, 1 μM): 20±6%; Reduction in PMN infiltration into post-reperfused cardiac tissue ([3]; I/R+PMN hearts, 2.5 μM): 46±4%; Reduction in PMN infiltration into post-reperfused cardiac tissue ([3]; I/R+PMN hearts, 5 μM): 48±3%; Effect on PMN infiltration in the presence of L-NAME (in words) ([3]; I/R+PMN hearts, with L-NAME): blocked; Inhibition of PMN superoxide release ([4]; 15 μM): 82%; Inhibition of superoxide release ([4]; 2.5-15 μM, PMA 15 nM): 33-82%; NO release compared to basal NO release ([5]; 1 μM): not significantly different; Increase in NO release compared to basal NO release ([5]; 2.5 μM): 47±2%; Increase in NO release compared to basal NO release ([5]; 5 μM): 54±5%; NO release from endothelium removed (denuded) rat aortic segments ([5]; 5 μM, denuded segments): not different from L-NAME-treated segments; Increase in NO release compared to basal NO release ([5]; 15 μM): 91±15%
PKC βII peptide inhibitor: peptide inhibitor of protein kinase C beta II; preferred sequence SEQ ID NO: 1, preferably myristoylated (SLNPEWNET; not fully specified; listed as Homo sapiens)	significant and sustained reduction	53±6	57±4	63±7	69±7	61±10	79±10	82±9	attenuated	attenuated				blocked	significantly blocked	significantly increased; also recorded: significantly more NO	completely inhibited	+dP/dtmax of initial baseline [2, 12]: 53±5%; LVDP of initial baseline [2, 12]: 56±2%; Inhibition of superoxide (in words) ([6]; 1 μM): no significant inhibition; Superoxide release (absorbance) ([6]; 5 μM): 0.05±0.009; Superoxide release (absorbance) ([6]; 10 μM): 0.02±0.004; Superoxide release (absorbance) ([6]; 20 μM): 0.02±0.007; Superoxide release after fMLP (200 nM) stimulation (in words) ([6]; 5, 10 and 20 μM, 90 sec after fMLP): significantly inhibited; Increase in NO release above basal ([5]; 1 μM): 0.75±0.19 pmoles NO/mg tissue; Increase in NO release above basal ([5]; 2.5 μM): 1.91±0.44 pmoles NO/mg tissue; Increase in NO release above basal ([5]; 5 μM): 2.54±0.29 pmoles NO/mg tissue; Increase in NO release above basal ([5]; 10 μM): 3.49±0.62 pmoles NO/mg tissue
